Results: ChEMBL document CHEMBL3407349, “The discovery of Polo-like kinase 4 inhibitors: identification of (1R,2S).2-(3-((E).4-(((cis).2,6-dimethylmorpholino)methyl)styryl). 1H.indazol-6-yl)-5'-methoxyspiro[cyclopropane-1,3'-indolin]-2'-one (CFI-400945) as a potent, orally active antitumor agent” (J Med Chem, 2015)

Experiments:
[1] = target: T1, Serine/threonine-protein kinase PLK4 (Homo sapiens, UniProt O00444); test: Inhibition of PLK4 (unknown origin) by ELISA
T1 sequence (O00444 whole entry): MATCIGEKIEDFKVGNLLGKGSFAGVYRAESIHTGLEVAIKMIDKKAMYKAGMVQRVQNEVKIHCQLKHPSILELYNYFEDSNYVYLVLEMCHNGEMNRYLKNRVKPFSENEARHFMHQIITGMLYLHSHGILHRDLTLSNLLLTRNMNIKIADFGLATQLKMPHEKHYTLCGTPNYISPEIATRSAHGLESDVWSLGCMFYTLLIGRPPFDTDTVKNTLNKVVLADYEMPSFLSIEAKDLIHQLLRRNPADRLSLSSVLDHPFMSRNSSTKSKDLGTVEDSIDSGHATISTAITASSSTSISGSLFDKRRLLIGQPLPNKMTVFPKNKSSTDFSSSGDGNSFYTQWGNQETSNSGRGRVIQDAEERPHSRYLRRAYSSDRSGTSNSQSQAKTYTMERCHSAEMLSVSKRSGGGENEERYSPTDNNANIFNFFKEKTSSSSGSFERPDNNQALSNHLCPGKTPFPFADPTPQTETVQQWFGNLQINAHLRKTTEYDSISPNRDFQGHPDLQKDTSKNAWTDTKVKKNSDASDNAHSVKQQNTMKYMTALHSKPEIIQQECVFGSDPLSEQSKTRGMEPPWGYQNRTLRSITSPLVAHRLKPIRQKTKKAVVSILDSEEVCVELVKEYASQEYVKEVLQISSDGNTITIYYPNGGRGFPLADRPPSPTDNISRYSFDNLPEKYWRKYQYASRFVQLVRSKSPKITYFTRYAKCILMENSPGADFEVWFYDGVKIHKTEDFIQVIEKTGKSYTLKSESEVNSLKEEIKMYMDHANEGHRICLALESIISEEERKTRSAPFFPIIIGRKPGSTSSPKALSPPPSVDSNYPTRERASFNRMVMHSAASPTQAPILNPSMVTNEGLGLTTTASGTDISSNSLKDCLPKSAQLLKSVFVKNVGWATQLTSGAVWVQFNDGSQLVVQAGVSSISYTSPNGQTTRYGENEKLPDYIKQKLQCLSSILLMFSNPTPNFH

[2] = tested on: MDA-MB-468; test: Growth inhibition of human MDA-MB-468 cells after 5 days by SRB assay; type: functional
[3] = tested on: MCF7; test: Growth inhibition of human MCF7 cells after 5 days by SRB assay; type: functional
[4] = tested on: HCC1954; test: Growth inhibition of human HCC1954 cells after 5 days by SRB assay; type: functional
[5] = tested on: MDA-MB-231; test: Growth inhibition of human MDA-MB-231 cells after 5 days by SRB assay; type: functional
[6] = Growth inhibition of human HMEC cells after 5 days by SRB assay; type: cell-based; conditions: HMEC cells
[7] = target: T2, Cytochrome P450 1A2 (Homo sapiens, UniProt P05177); test: Inhibition of CYP1A2 (unknown origin) by fluorescence assay; type: ADME
T2 sequence (P05177 whole entry): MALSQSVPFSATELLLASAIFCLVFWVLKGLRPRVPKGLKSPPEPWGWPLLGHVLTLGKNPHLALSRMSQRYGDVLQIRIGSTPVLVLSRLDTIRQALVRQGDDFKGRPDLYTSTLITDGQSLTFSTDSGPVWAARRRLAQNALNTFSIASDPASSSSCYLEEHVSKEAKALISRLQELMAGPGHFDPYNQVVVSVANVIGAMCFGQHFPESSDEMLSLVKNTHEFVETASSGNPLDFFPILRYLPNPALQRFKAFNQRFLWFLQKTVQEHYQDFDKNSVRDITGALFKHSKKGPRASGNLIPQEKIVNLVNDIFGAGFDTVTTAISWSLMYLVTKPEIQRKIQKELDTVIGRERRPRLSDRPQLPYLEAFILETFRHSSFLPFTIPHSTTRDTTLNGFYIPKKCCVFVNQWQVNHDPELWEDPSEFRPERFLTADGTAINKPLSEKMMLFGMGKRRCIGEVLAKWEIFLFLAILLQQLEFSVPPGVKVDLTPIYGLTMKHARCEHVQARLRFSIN

[8] = target: Cytochrome P450 2D6 (Homo sapiens, UniProt P10635); test: Inhibition of CYP2D6 (unknown origin) by fluorescence assay; type: ADME
[9] = target: Cytochrome P450 2C9 (Homo sapiens, UniProt P11712); test: Inhibition of CYP2C9 (unknown origin) by fluorescence assay
[10] = target: Cytochrome P450 2C19 (Homo sapiens, UniProt P33261); test: Inhibition of CYP2C19 (unknown origin) by fluorescence assay
[11] = target: T3, Cytochrome P450 3A4 (Homo sapiens, UniProt P08684); test: Inhibition of CYP3A4 (unknown origin) using DBF as substrate by fluorescence assay
[12] = Half life in mouse liver microsomes
[13] = Half life in human liver microsomes
[14] = Cmax in athymic CD1 nude mouse at 25 mg/kg, po by LC/MS/MS analysis; type: ADME, organism-based; design: dose 25 mg/kg, route oral; conditions: in vivo
[15] = AUC in athymic CD1 nude mouse at 25 mg/kg, po by LC/MS/MS analysis; type: ADME, organism-based; design: dose 25 mg/kg, route oral; conditions: plasma
[16] = target: T3, Cytochrome P450 3A4; test: Inhibition of CYP3A4 (unknown origin) using BFC as substrate by fluorescence assay
[17] = Homo sapiens, MDA-MB-468, 120 h
[18] = Homo sapiens, MDA-MB-231, 120 h

Chain of Cytochrome P450 2C9 (P11712 whole entry): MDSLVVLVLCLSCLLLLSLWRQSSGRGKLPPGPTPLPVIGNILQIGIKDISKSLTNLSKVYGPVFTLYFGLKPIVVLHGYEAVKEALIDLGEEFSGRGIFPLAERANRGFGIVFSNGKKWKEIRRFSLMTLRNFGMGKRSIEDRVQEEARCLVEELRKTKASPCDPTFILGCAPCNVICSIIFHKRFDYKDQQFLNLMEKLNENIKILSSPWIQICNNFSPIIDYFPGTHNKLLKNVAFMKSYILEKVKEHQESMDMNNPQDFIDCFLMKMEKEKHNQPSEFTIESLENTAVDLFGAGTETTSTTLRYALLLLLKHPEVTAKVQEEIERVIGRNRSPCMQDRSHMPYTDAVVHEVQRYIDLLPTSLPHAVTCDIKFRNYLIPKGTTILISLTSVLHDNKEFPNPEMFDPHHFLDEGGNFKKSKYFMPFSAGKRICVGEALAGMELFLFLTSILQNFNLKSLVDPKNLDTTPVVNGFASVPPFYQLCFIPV
T3 sequence (P08684 whole entry): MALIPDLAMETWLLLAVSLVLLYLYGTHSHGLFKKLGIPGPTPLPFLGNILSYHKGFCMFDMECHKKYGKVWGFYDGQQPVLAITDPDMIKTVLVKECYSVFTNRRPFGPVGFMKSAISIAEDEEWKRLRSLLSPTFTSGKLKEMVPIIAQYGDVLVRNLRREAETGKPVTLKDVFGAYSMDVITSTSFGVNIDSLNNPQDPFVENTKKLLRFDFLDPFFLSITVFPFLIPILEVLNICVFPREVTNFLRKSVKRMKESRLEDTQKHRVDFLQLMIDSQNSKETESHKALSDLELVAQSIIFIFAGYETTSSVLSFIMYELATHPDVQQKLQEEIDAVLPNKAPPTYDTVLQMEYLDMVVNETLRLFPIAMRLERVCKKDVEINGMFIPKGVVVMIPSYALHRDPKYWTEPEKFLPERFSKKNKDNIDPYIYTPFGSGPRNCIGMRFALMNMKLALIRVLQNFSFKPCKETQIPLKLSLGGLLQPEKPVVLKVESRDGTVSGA
Chain of Cytochrome P450 2D6 (P10635 whole entry): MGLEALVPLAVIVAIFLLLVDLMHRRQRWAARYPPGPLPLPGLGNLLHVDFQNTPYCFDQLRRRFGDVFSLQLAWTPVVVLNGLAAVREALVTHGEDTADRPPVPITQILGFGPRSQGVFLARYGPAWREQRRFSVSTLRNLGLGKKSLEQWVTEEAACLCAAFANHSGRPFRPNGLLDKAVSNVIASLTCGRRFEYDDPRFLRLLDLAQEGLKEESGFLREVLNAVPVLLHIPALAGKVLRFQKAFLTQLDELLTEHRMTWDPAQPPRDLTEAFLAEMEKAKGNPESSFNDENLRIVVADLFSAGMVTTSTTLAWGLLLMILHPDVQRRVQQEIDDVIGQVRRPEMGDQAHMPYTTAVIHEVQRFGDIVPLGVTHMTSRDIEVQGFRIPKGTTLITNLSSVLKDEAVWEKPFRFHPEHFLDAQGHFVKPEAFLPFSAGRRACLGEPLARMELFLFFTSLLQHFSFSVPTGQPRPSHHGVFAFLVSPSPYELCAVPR
Chain of Cytochrome P450 2C19 (P33261 whole entry): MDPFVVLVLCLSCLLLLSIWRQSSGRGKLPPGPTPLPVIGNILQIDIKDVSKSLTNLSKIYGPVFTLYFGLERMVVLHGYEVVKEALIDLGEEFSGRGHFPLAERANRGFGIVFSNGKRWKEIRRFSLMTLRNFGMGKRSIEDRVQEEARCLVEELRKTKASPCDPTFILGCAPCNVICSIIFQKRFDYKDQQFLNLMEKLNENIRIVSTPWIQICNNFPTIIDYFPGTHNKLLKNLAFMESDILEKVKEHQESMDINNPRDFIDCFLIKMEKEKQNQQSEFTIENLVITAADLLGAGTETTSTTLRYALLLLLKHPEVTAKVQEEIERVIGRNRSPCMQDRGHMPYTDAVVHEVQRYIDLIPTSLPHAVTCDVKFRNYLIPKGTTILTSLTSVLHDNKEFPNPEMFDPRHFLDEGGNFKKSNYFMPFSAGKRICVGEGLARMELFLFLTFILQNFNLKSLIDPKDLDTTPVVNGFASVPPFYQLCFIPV

Compound | GI50 [2, 17] | GI50 ([3]; Homo sapiens, MCF7, 120 h) | GI50 ([4]; Homo sapiens, HCC1954, 120 h) | GI50 [5, 18] | GI50 at 120 h [6] | inhibition (INH) [7] | inhibition (INH) [8] | IC50 [9] | IC50 [10] | Cmax [14] | AUC [15] | also measured
O=C1Nc2ccccc2[C@]12C[C@H]2c1ccc2c(/C=C/c3ccc(CN4CC5CCC(C4)O5)cc3)n[nH]c2c1 | 0.061 µM | 0.17 µM | 0.053 µM | 4.1 µM |  |  |  |  |  |  |  | IC50 [1]: 0.0052 µM
COc1ccc2c(c1)[C@]1(C[C@H]1c1ccc3c(/C=C/c4ccc(CN(C)C)cc4)n[nH]c3c1)C(=O)N2 | < 0.001 µM | 0.0001 µM | 5 µM | 2.8 µM | 41 µM | Not Active | Not Active | 3.5 µM | 2 µM | 0.3 µg/mL | 0.64 µg·h/mL | IC50 [11]: 7.5 µM; half-life ([12]; liver microsomes): 22 min; half-life ([13]; liver microsomes): 36 min
COc1ccc2c(c1)[C@]1(C[C@H]1c1ccc3c(/C=C/c4ccc(CN5CCOCC5)cc4)n[nH]c3c1)C(=O)N2 (racemic) |  |  |  |  |  |  |  |  |  |  |  | GI50 [2]: 0.006 µM; GI50 [3]: 0.01 µM; GI50 [4]: 7.3 µM; GI50 [5]: 14 µM
C[C@@H]1CN(Cc2ccc(/C=C/c3n[nH]c4cc([C@@H]5C[C@@]56C(=O)Nc5ccccc56)ccc34)cc2)C[C@H](C)N1C | 0.01 µM | 2.5 µM | 1.3 µM | 0.5 µM |  |  |  |  |  |  |  | IC50 [1]: 0.00064 µM
O=C1Nc2ccccc2[C@]12C[C@H]2c1ccc2c(/C=C/c3ccc(CN4CCCC4)cc3)n[nH]c2c1 | < 0.001 µM | 0.37 µM | 0.026 µM | 0.25 µM | 3.6 µM |  |  |  |  |  |  | 
CN(C)Cc1ccc(/C=C/c2n[nH]c3cc([C@@H]4C[C@@]45C(=O)Nc4ccccc45)ccc23)cc1 (racemic) |  |  | 1.9 µM |  | 28 µM |  |  |  |  |  |  | GI50 [5]: 12 µM
CN1CCC(Oc2ccc(/C=C/c3n[nH]c4cc([C@@H]5C[C@@]56C(=O)Nc5ccccc56)ccc34)cc2)CC1 | 0.002 µM | 2.4 µM | 0.77 µM | 0.92 µM |  |  |  |  |  |  |  | 
O=C1Nc2ccccc2[C@]12C[C@H]2c1ccc2c(/C=C/c3cccc(CN4CCOCC4)c3)n[nH]c2c1 | 0.13 µM | 0.35 µM | 1.6 µM | 2.2 µM | 50 µM |  |  |  |  |  |  | 
C[C@@H]1CN(Cc2cccc(/C=C/c3n[nH]c4cc([C@@H]5C[C@@]56C(=O)Nc5ccccc56)ccc34)c2)C[C@H](C)O1 | 1.1 µM | 1.3 µM | 0.084 µM | 9.6 µM |  |  |  |  |  |  |  | IC50 [1]: 0.02 µM
COc1ccc2c(c1)[C@]1(C[C@H]1c1ccc3c(/C=C/c4ccc(CN5CCCCC5)cc4)n[nH]c3c1)C(=O)N2 | < 0.001 µM | < 0.001 µM | 5 µM | 1.6 µM | 50 µM | Not Active | Not Active | 3.4 µM | 1.4 µM | 0.51 µg/mL | 1.3 µg·h/mL | IC50 [11]: 5.4 µM; IC50 [16]: > 1 µM; half-life ([12]; liver microsomes): 40 min; half-life ([13]; liver microsomes): 49 min
COc1ccc2c(c1)[C@]1(C[C@H]1c1ccc3c(/C=C/c4ccc(N5CCN(C)CC5)nc4)n[nH]c3c1)C(=O)N2 | < 0.001 µM | < 0.001 µM | 0.002 µM | 2.6 µM | 47 µM | Not Active | Not Active | 2 µM | 1.5 µM | 0.2 µg/mL | 0.38 µg·h/mL | IC50 [11]: 5.6 µM; IC50 [16]: 10 µM; half-life ([12]; liver microsomes): 6 min; half-life ([13]; liver microsomes): 11 min
CN(C)Cc1ccc(/C=C/c2n[nH]c3cc([C@@H]4C[C@@]45C(=O)N(C)c4ccccc45)ccc23)cc1 | 0.002 µM | 0.0015 µM | 0.007 µM | 0.75 µM | 8 µM | Not Active | Not Active | 2.6 µM | 1.9 µM | 0.51 µg/mL | 1.1 µg·h/mL | IC50 [11]: > 1 µM; IC50 [16]: 2.3 µM; half-life ([12]; microsomes): 12 min; half-life ([13]; microsomes): 44 min
O=C1Nc2ccccc2[C@]12C[C@H]2c1ccc2c(/C=C/c3cccnc3)n[nH]c2c1 | 0.06 µM | 2 µM | 7.5 µM | 1 µM | 4.4 µM |  |  |  |  |  |  | 
O=C1Nc2ccccc2[C@]12C[C@H]2c1ccc2c(/C=C/c3ccc(CN4CC[C@@H](F)C4)cc3)n[nH]c2c1 | 0.0067 µM | 34 µM | 0.022 µM | 5.6 µM | 7.9 µM | Not Active | Not Active | 0.9 µM | 1.5 µM | 0.79 µg/mL | 1.8 µg·h/mL | half-life ([12]; liver microsomes): 17 min; half-life ([13]; liver microsomes): 52 min
O=C1Nc2ccccc2[C@]12C[C@H]2c1ccc2c(/C=C/c3ccc(CN4CCCCC4)cc3)n[nH]c2c1 | < 0.001 µM | < 0.001 µM | 5 µM | 2.2 µM | 20 µM |  |  |  |  |  |  | 
O=C1Nc2ccccc2[C@]12C[C@H]2c1ccc2c(/C=C/c3ccc(CN4CCCOCC4)cc3)n[nH]c2c1 | 0.002 µM | 1 µM | 1.8 µM | 3 µM |  |  |  |  |  |  |  | 
